Experimental data as given in PubChem BioAssay (NCI).
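96-well plates; 48 h exposure; 5 concentrations. Endpoints by linear interpolation between flanking doses. Not reached: highest tested concentration assigned. Definition used: TGI = concentration required for complete inhibition of growth.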

What was measured:
Experiment in all cases: NCI anticancer screen, dose series, 48 h
T-47D breast = tested on: T-47D breast
SF-268 CNS = tested on: SF-268 CNS
SW-620 colon = tested on: SW-620 colon
K-562 leukemia = tested on: K-562 leukemia
HCT-116 colon = tested on: HCT-116 colon
MDA-MB-231 breast = tested on: MDA-MB-231 breast
SNB-19 CNS = tested on: SNB-19 CNS
LOX IMVI melanoma = tested on: LOX IMVI melanoma
NCI-H226 lung = tested on: NCI-H226 lung
CCRF-CEM leukemia = tested on: CCRF-CEM leukemia
MDA-N = tested on: MDA-N
NCI-H460 lung = tested on: NCI-H460 lung
SN12C renal = tested on: SN12C renal
HOP-62 NSCLC = tested on: HOP-62 NSCLC
OVCAR-3 ovarian = tested on: OVCAR-3 ovarian
COLO 205 colon = tested on: COLO 205 colon
786-0 renal = tested on: 786-0 renal
A498 renal = tested on: A498 renal
RXF 393 renal = tested on: RXF 393 renal
MDA-MB-435 = tested on: MDA-MB-435
NCI/ADR-RES ovarian = tested on: NCI/ADR-RES ovarian
HS 578T breast = tested on: HS 578T breast
UACC-257 melanoma = tested on: UACC-257 melanoma
PC-3 prostate = tested on: PC-3 prostate
OVCAR-8 ovarian = tested on: OVCAR-8 ovarian
BT-549 breast = tested on: BT-549 breast
HCT-15 colon = tested on: HCT-15 colon
OVCAR-5 ovarian = tested on: OVCAR-5 ovarian
U251 CNS = tested on: U251 CNS
CAKI-1 renal = tested on: CAKI-1 renal
SF-539 CNS = tested on: SF-539 CNS
HL-60(TB) leukemia = tested on: HL-60(TB) leukemia
OVCAR-4 ovarian = tested on: OVCAR-4 ovarian
A549 NSCLC = tested on: A549 NSCLC
KM12 colon = tested on: KM12 colon
IGROV1 ovarian = tested on: IGROV1 ovarian
DU-145 prostate = tested on: DU-145 prostate
MOLT-4 leukemia = tested on: MOLT-4 leukemia
RPMI-8226 leukemia = tested on: RPMI-8226 leukemia
HT29 colon = tested on: HT29 colon
HCC-2998 colon = tested on: HCC-2998 colon
SNB-75 CNS = tested on: SNB-75 CNS
SR leukemia = tested on: SR leukemia
SK-OV-3 ovarian = tested on: SK-OV-3 ovarian
SK-MEL-5 melanoma = tested on: SK-MEL-5 melanoma
SK-MEL-28 melanoma = tested on: SK-MEL-28 melanoma
UACC-62 melanoma = tested on: UACC-62 melanoma
HOP-92 NSCLC = tested on: HOP-92 NSCLC
SK-MEL-2 melanoma = tested on: SK-MEL-2 melanoma
ACHN renal = tested on: ACHN renal
NCI-H23 lung = tested on: NCI-H23 lung
M14 melanoma = tested on: M14 melanoma
SF-295 CNS = tested on: SF-295 CNS
TK-10 renal = tested on: TK-10 renal
EKVX NSCLC = tested on: EKVX NSCLC
UO-31 renal = tested on: UO-31 renal
MALME-3M melanoma = tested on: MALME-3M melanoma
NCI-H522 lung = tested on: NCI-H522 lung
MCF7 breast = tested on: MCF7 breast

In the case of `COc1ccc2oc(=N)c(C(N)=O)cc2c1`, the TGI (T-47D breast) was > 100 µM, the TGI (SF-268 CNS) was > 100 µM and the TGI (SW-620 colon) was > 100 µM. For the same molecule, the TGI (K-562 leukemia) was > 100 µM, the TGI (HCT-116 colon) was > 100 µM and the TGI (MDA-MB-231 breast) was > 100 µM. The TGI (SNB-19 CNS) was > 100 µM, the TGI (LOX IMVI melanoma) was > 100 µM and the TGI (NCI-H226 lung) was > 100 µM. For the same molecule, the TGI (CCRF-CEM leukemia) was > 100 µM, the TGI (MDA-N) was > 100 µM and the TGI (NCI-H460 lung) was > 100 µM. The TGI (SN12C renal) was > 100 µM, the TGI (HOP-62 NSCLC) was > 100 µM and the TGI (OVCAR-3 ovarian) was > 100 µM. For the same molecule, the TGI (COLO 205 colon) was > 100 µM, the TGI (786-0 renal) was > 100 µM and the TGI (A498 renal) was > 100 µM. For the same molecule, the TGI (RXF 393 renal) was > 100 µM, the TGI (MDA-MB-435) was > 100 µM and the TGI (NCI/ADR-RES ovarian) was > 100 µM. For the same molecule, the TGI (HS 578T breast) was 61.7 µM, the TGI (UACC-257 melanoma) was > 100 µM and the TGI (PC-3 prostate) was > 100 µM. For the same molecule, the TGI (OVCAR-8 ovarian) was > 100 µM, the TGI (BT-549 breast) was > 100 µM and the TGI (HCT-15 colon) was > 100 µM. The TGI (OVCAR-5 ovarian) was > 100 µM, the TGI (U251 CNS) was > 100 µM and the TGI (CAKI-1 renal) was > 100 µM. For the same molecule, the TGI (SF-539 CNS) was > 100 µM, the TGI (HL-60(TB) leukemia) was > 100 µM and the TGI (OVCAR-4 ovarian) was > 100 µM. The TGI (A549 NSCLC) was > 100 µM, the TGI (KM12 colon) was > 100 µM and the TGI (IGROV1 ovarian) was > 100 µM. For the same molecule, the TGI (DU-145 prostate) was > 100 µM, the TGI (MOLT-4 leukemia) was > 100 µM and the TGI (RPMI-8226 leukemia) was > 100 µM. The TGI (HT29 colon) was > 100 µM, the TGI (HCC-2998 colon) was > 100 µM and the TGI (SNB-75 CNS) was > 100 µM. The TGI (SR leukemia) was > 100 µM, the TGI (SK-OV-3 ovarian) was > 100 µM and the TGI (SK-MEL-5 melanoma) was > 100 µM. For the same molecule, the TGI (SK-MEL-28 melanoma) was > 100 µM, the TGI (UACC-62 melanoma) was > 100 µM and the TGI (HOP-92 NSCLC) was > 100 µM. The TGI (SK-MEL-2 melanoma) was 63 µM, the TGI (ACHN renal) was > 100 µM and the TGI (NCI-H23 lung) was > 100 µM. For the same molecule, the TGI (M14 melanoma) was > 100 µM.

With `CC(C)(C)OC(=O)N1CC(O)O[C@H](c2ccccc2)[C@@H]1c1ccccc1` (stereo not given in full) the TGI (T-47D breast) was > 100 µM, the TGI (SF-268 CNS) was 77.6 µM and the TGI (SF-295 CNS) was 30.1 µM. For the same molecule, the TGI (SW-620 colon) was 32.8 µM, the TGI (K-562 leukemia) was > 100 µM and the TGI (HCT-116 colon) was > 100 µM. The TGI (MDA-MB-231 breast) was 67.6 µM, the TGI (SNB-19 CNS) was 29.1 µM and the TGI (LOX IMVI melanoma) was > 100 µM. The TGI (NCI-H226 lung) was 45.7 µM, the TGI (CCRF-CEM leukemia) was 48.4 µM and the TGI (MDA-N) was 59.5 µM. The TGI (SN12C renal) was > 100 µM, the TGI (HOP-62 NSCLC) was 31.2 µM and the TGI (OVCAR-3 ovarian) was 30.2 µM. The TGI (COLO 205 colon) was 97.4 µM, the TGI (786-0 renal) was 62.1 µM and the TGI (A498 renal) was 40.7 µM. The TGI (RXF 393 renal) was 30 µM, the TGI (MDA-MB-435) was 32.2 µM and the TGI (TK-10 renal) was 33.1 µM. For the same molecule, the TGI (NCI/ADR-RES ovarian) was > 100 µM, the TGI (HS 578T breast) was > 100 µM and the TGI (UACC-257 melanoma) was 35.3 µM. The TGI (PC-3 prostate) was 27.8 µM, the TGI (EKVX NSCLC) was 40.9 µM and the TGI (OVCAR-8 ovarian) was > 100 µM. For the same molecule, the TGI (BT-549 breast) was 36.4 µM, the TGI (HCT-15 colon) was 33.9 µM and the TGI (OVCAR-5 ovarian) was 32.3 µM. For the same molecule, the TGI (U251 CNS) was 33.4 µM, the TGI (CAKI-1 renal) was > 100 µM and the TGI (UO-31 renal) was 31.4 µM. For the same molecule, the TGI (OVCAR-4 ovarian) was 36.2 µM, the TGI (A549 NSCLC) was 39.5 µM and the TGI (KM12 colon) was 42 µM. It also gave a TGI (IGROV1 ovarian) of 40.4 µM, a TGI (DU-145 prostate) of 53.8 µM and a TGI (MOLT-4 leukemia) of 97.5 µM. The TGI (RPMI-8226 leukemia) was > 100 µM, the TGI (HT29 colon) was 39.3 µM and the TGI (SNB-75 CNS) was 70.2 µM. For the same molecule, the TGI (MALME-3M melanoma) was 43.2 µM, the TGI (SR leukemia) was 62.8 µM and the TGI (SK-OV-3 ovarian) was 36.6 µM. The TGI (SK-MEL-5 melanoma) was > 100 µM, the TGI (SK-MEL-28 melanoma) was 35.2 µM and the TGI (UACC-62 melanoma) was 28.1 µM. It also gave a TGI (HOP-92 NSCLC) of 36.1 µM, a TGI (SK-MEL-2 melanoma) of 28.4 µM and a TGI (NCI-H522 lung) of 45.6 µM. It also gave a TGI (NCI-H23 lung) of 29.5 µM and a TGI (M14 melanoma) of 30.2 µM.

`c1cc2ccc3cc4ncccc4c4ccc(c1)c2c34` was tested, and the TGI (T-47D breast) was > 100 µM, the TGI (SF-268 CNS) was > 100 µM and the TGI (SF-295 CNS) was > 100 µM. The TGI (SW-620 colon) was > 100 µM, the TGI (K-562 leukemia) was > 100 µM and the TGI (HCT-116 colon) was > 100 µM. The TGI (MDA-MB-231 breast) was > 100 µM, the TGI (SNB-19 CNS) was > 100 µM and the TGI (LOX IMVI melanoma) was > 100 µM. The TGI (NCI-H226 lung) was > 100 µM, the TGI (CCRF-CEM leukemia) was > 100 µM and the TGI (MDA-N) was > 100 µM. For the same molecule, the TGI (NCI-H460 lung) was > 100 µM, the TGI (SN12C renal) was > 100 µM and the TGI (HOP-62 NSCLC) was > 100 µM. The TGI (OVCAR-3 ovarian) was > 100 µM, the TGI (COLO 205 colon) was > 100 µM and the TGI (786-0 renal) was > 100 µM. For the same molecule, the TGI (RXF 393 renal) was > 100 µM, the TGI (MDA-MB-435) was > 100 µM and the TGI (TK-10 renal) was > 100 µM. The TGI (NCI/ADR-RES ovarian) was > 100 µM, the TGI (HS 578T breast) was > 100 µM and the TGI (UACC-257 melanoma) was > 100 µM. The TGI (PC-3 prostate) was > 100 µM, the TGI (EKVX NSCLC) was > 100 µM and the TGI (OVCAR-8 ovarian) was 67.4 µM. The TGI (HCT-15 colon) was > 100 µM, the TGI (OVCAR-5 ovarian) was > 100 µM and the TGI (U251 CNS) was > 100 µM. For the same molecule, the TGI (CAKI-1 renal) was > 100 µM, the TGI (UO-31 renal) was 40.2 µM and the TGI (SF-539 CNS) was > 100 µM. The TGI (HL-60(TB) leukemia) was > 100 µM, the TGI (A549 NSCLC) was > 100 µM and the TGI (KM12 colon) was > 100 µM. For the same molecule, the TGI (IGROV1 ovarian) was 25 µM, the TGI (DU-145 prostate) was > 100 µM and the TGI (MOLT-4 leukemia) was > 100 µM. The TGI (RPMI-8226 leukemia) was 88.3 µM, the TGI (HT29 colon) was > 100 µM and the TGI (HCC-2998 colon) was > 100 µM. For the same molecule, the TGI (SNB-75 CNS) was > 100 µM, the TGI (MALME-3M melanoma) was > 100 µM and the TGI (SR leukemia) was > 100 µM. For the same molecule, the TGI (SK-OV-3 ovarian) was > 100 µM, the TGI (SK-MEL-28 melanoma) was > 100 µM and the TGI (UACC-62 melanoma) was > 100 µM. For the same molecule, the TGI (HOP-92 NSCLC) was > 100 µM, the TGI (MCF7 breast) was > 100 µM and the TGI (SK-MEL-2 melanoma) was 77 µM. For the same molecule, the TGI (NCI-H522 lung) was > 100 µM, the TGI (ACHN renal) was 31.6 µM and the TGI (NCI-H23 lung) was > 100 µM. For the same molecule, the TGI (M14 melanoma) was > 100 µM.
